In patent US20260109694A1, “HETEROCYCLIC COMPOUNDS AND USES THEREOF” (Kumquat Biosciences Inc., priority 2023, published 2026):

What was measured:
PTPN2 = biological target: T1, PTPN2 (Homo sapiens, UniProt P17706); assay: Phosphatase activity assay (DiFMUP substrate); format: biochemical; details: value bin printed in column head
T1 sequence (P17706 1-415): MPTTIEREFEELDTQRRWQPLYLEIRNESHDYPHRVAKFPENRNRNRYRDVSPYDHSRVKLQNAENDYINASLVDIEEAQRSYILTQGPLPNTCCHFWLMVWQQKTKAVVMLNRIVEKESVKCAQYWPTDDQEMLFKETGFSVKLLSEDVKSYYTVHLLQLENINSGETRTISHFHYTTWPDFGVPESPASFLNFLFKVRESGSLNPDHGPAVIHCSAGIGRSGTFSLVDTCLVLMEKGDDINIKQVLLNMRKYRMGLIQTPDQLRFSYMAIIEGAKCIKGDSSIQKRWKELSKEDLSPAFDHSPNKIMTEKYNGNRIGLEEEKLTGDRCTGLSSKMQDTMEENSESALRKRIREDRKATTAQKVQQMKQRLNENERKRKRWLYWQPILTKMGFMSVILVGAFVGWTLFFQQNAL
Experimental: (§1) The selectivity and potency of a small molecule PTPN2 inhibitor as provided herein against one or more protein tyrosine phosphatase (PTP) enzymes, and specifically against PTPN2, is assessed in various ways. The one or more PTP enzymes comprise Mycobacterium protein tyrosine phosphatase A (mPTPA), Mycobacterium protein tyrosine phosphatase B (mPTPB), PTPN1 (i.e., PTP1B), PTPN2 (i.e., TC-PTP), PTPN22 (i.e., LYP), SHP-1, SHP-2, FAP-1, Meg2, HePTP, Laforin, VHX, VHR, LMWPTP, Cdc14A, LAR, CD45, PTPRG, a fragment thereof, a variant thereof, and a combination thereof. Selectivity and potency of a small molecule PTPN2 inhibitor is evaluated using a PTP activity inhibition assay. The assay is performed using a buffer comprising 50 mM HEPES buffer pH 7.5, 150 mM NaCl, 0.5 mM EDTA, 1 mM DTT, 0.001% Tween-20.
(§2) The assay is performed using a phosphated substrate, e.g., 10 mM 6,8-Difluoro-4-Methylumbelliferyl Phosphate (DIFMUP) that is stored at −20° C. Alternatively or in addition to, the assay is performed using other phosphated substrate (e.g., fluorescein diphosphate). Each PTP enzyme is diluted in the assay buffer
(§3) The assay can be carried out at room temperature in multiplate format, e.g., using 384 well plates. A small molecule PTPN2 inhibitor dissolved in DMSO at one of 10 concentrations from a serial dilution or DMSO alone for control is added to each well. A mixture of the assay buffer comprising PTP enzyme (e.g., 0.025 ng/ul PTPN2) is added to each well and mixed for approximately 2 minutes. The reaction is initiated by adding DiFMUP diluted in the assay buffer to a final concentration of approximately 45 µM DiFMUP in PTPN2 assay. For each PTP enzyme, DiFMUP is added at the Km (Michaelis constant) of the enzyme that had been independently determined. The phosphatase activity of the PTP enzyme is assessed by monitoring appearance of a fluorescent product (6,8-difluoro-7-hydroxyl-4-coumarin (DiFMU) from DiFMUP) continuously for about 15 to 30 minutes, using the INFINITE M1000Pro plate reader (Tecan) with excitation at 360 nm and emission at 450 nm (cutoff filter at 435 nm) for DiFMU. Each assay is performed at least in duplicate. The rate (e.g., the initial rate) of DiFMU formation is plotted against the concentration of the small molecule PTPN2 inhibitor, and the data is fitted (e.g., using a 4-parameter equation) to determine the inflection point of the fit as the IC50 of the small molecule PTPN2 inhibitor for a specific enzyme. Utilizing this assay, the ability of the compounds in Table 1 to inhibit PTPN2 and PTP1B has been assessed. Table 3 summarizes the IC50 values.

PTP1B = biological target: T2, PTP1B (Homo sapiens, UniProt P18031); assay: Phosphatase activity assay (DiFMUP substrate); format: biochemical; details: value bin printed in column head
T2 sequence (P18031 1-435): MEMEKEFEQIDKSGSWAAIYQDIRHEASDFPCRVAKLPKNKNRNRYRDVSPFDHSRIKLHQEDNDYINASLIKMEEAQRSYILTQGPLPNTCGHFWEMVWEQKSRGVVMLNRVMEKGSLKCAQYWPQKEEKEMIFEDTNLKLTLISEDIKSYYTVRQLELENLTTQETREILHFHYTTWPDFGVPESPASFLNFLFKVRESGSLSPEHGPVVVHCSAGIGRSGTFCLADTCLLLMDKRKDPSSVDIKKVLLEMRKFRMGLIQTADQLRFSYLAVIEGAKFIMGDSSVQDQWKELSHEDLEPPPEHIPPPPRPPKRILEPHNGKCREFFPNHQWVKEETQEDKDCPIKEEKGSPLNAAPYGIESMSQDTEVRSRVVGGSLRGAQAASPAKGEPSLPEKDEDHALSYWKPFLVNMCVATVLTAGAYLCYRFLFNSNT
Experimental: as §1, §2, §3

SMILES | IC50 (PTPN2) [µM] | IC50 (PTP1B) [µM]
CC(=O)OC(C)OC(=O)N1CC(c2ccc(O)c(N3CC(=O)NS3(=O)=O)c2F)=C[C@H]1CCC1CC1 (stereo partly drawn) [Compound 121, 1-acetoxyethyl (2R)-2-(2-cyclopropylethyl)-4-(3-(1,1-dioxido-4-oxo-1,2,5-thiadiazolidin-2-yl)-2-fluoro-4-hydroxyphenyl)-2,5-dihydro-1H-pyrrole-1-carboxylate] | ≤ 1 | ≤ 1
O=C1CN(c2c(O)ccc(C3=CC(CCCC4CC4)NC3)c2F)S(=O)(=O)N1 (centres unmarked) [Compound 123, 5-(3-(5-(3-cyclopropylpropyl)-2,5-dihydro-1H-pyrrol-3-yl)-2-fluoro-6-hydroxyphenyl)-1,2,5-thiadiazolidin-3-one 1,1-dioxide] | ≤ 1 | ≤ 1
O=C1CN(c2c(O)ccc(C(=O)NC3CNC3)c2F)S(=O)(=O)N1 [Compound 124, N-(azetidin-3-yl)-3-(1,1-dioxido-4-oxo-1,2,5-thiadiazolidin-2-yl)-2-fluoro-4-hydroxybenzamide] | > 1 | > 1
O=C1CN(c2c(O)ccc(C3=CC(C4CCC4)NC3)c2F)S(=O)(=O)N1 (centres unmarked) [Compound 125, 5-(3-(5-cyclobutyl-2,5-dihydro-1H-pyrrol-3-yl)-2-fluoro-6-hydroxyphenyl)-1,2,5-thiadiazolidin-3-one 1,1-dioxide] | ≤ 1 | ≤ 1
O=C1CN(c2c(O)ccc(CC3CCNCC3)c2F)S(=O)(=O)N1 [Compound 127, 5-(2-fluoro-6-hydroxy-3-(piperidin-4-ylmethyl)phenyl)-1,2,5-thiadiazolidin-3-one 1,1-dioxide] | ≤ 1 | ≤ 1
O=C1CN(c2c(O)ccc(C3=C[C@H](CCC4CC4)NC3)c2F)S(=O)(=O)N1 [Compound 130, (S)-5-(3-(5-(2-cyclopropylethyl)-2,5-dihydro-1H-pyrrol-3-yl)-2-fluoro-6-hydroxyphenyl)-1,2,5-thiadiazolidin-3-one 1,1-dioxide] | ≤ 1 | ≤ 1
O=C1CN(c2c(O)ccc(C3=CC(CO)CC3)c2F)S(=O)(=O)N1 (centres unmarked) [Compound 131, 5-(2-fluoro-6-hydroxy-3-(3-(hydroxymethyl)cyclopent-1-en-1-yl)phenyl)-1,2,5-thiadiazolidin-3-one 1,1-dioxide] | ≤ 1 | ≤ 1
O=C1CN(c2c(O)cc(C3=CCCNC3)cc2F)S(=O)(=O)N1 [Compound 132, 5-(2-fluoro-6-hydroxy-4-(1,2,5,6-tetrahydropyridin-3-yl)phenyl)-1,2,5-thiadiazolidin-3-one 1,1-dioxide] | ≤ 1 | ≤ 1
O=C1CN(c2c(O)ccc(C3=CC(CCC(F)(F)F)NC3)c2F)S(=O)(=O)N1 (centres unmarked) [Compound 133, 5-(2-fluoro-6-hydroxy-3-(5-(3,3,3-trifluoropropyl)-2,5-dihydro-1H-pyrrol-3-yl)phenyl)-1,2,5-thiadiazolidin-3-one 1,1-dioxide] | ≤ 1 | ≤ 1
O=C1CN(c2c(O)ccc(C3=C[C@H](CCC4CCC4)NC3)c2F)S(=O)(=O)N1 [Compound 134, (S)-5-(3-(5-(2-cyclobutylethyl)-2,5-dihydro-1H-pyrrol-3-yl)-2-fluoro-6-hydroxyphenyl)-1,2,5-thiadiazolidin-3-one 1,1-dioxide] | ≤ 1 | ≤ 1
O=C1CN(c2c(O)ccc(C3=CCC(CO)C3)c2F)S(=O)(=O)N1 (centres unmarked) [Compound 135, 5-(2-fluoro-6-hydroxy-3-(4-(hydroxymethyl)cyclopent-1-en-1-yl)phenyl)-1,2,5-thiadiazolidin-3-one 1,1-dioxide] | ≤ 1 | ≤ 1
O=C1CN(c2c(O)ccc(C3=CC(CCCC(F)F)NC3)c2F)S(=O)(=O)N1 (centres unmarked) [Compound 137, 5-(3-(5-(4,4-difluorobutyl)-2,5-dihydro-1H-pyrrol-3-yl)-2-fluoro-6-hydroxyphenyl)-1,2,5-thiadiazolidin-3-one 1,1-dioxide] | ≤ 1 | ≤ 1
O=C1CN(c2c(O)cc(C3CCCNC3)cc2F)S(=O)(=O)N1 (centres unmarked) [Compound 138, 5-(2-fluoro-6-hydroxy-4-(piperidin-3-yl)phenyl)-1,2,5-thiadiazolidin-3-one 1,1-dioxide] | ≤ 1 | ≤ 1
O=C1CN(c2c(O)cc(CC3CCNC3)cc2F)S(=O)(=O)N1 (centres unmarked) [Compound 140, 5-(2-fluoro-6-hydroxy-4-(pyrrolidin-3-ylmethyl)phenyl)-1,2,5-thiadiazolidin-3-one 1,1-dioxide] | ≤ 1 | ≤ 1

Second part, the compound after the results:

IC50 (PTPN2) [µM] | IC50 (PTP1B) [µM] | SMILES
≤ 1 | ≤ 1 | O=C1CN(c2c(O)ccc(CC3CCCNC3)c2F)S(=O)(=O)N1 (centres unmarked) [Compound 122, 5-(2-fluoro-6-hydroxy-3-(piperidin-3-ylmethyl)phenyl)-1,2,5-thiadiazolidin-3-one 1,1-dioxide]
≤ 1 | ≤ 1 | O=C1CN(c2c(O)ccc(C3=CC(CC4CCC4)NC3)c2F)S(=O)(=O)N1 (centres unmarked) [Compound 126, 5-(3-(5-(cyclobutylmethyl)-2,5-dihydro-1H-pyrrol-3-yl)-2-fluoro-6-hydroxyphenyl)-1,2,5-thiadiazolidin-3-one 1,1-dioxide]
≤ 1 | ≤ 1 | O=C1CN(c2c(O)cc(C3=CCNC3)cc2F)S(=O)(=O)N1 [Compound 128, 5-(4-(2,5-dihydro-1H-pyrrol-3-yl)-2-fluoro-6-hydroxyphenyl)-1,2,5-thiadiazolidin-3-one 1,1-dioxide]
≤ 1 | ≤ 1 | CCC[C@H]1C=C(c2ccc(O)c(N3CC(=O)NS3(=O)=O)c2F)CN1 [Compound 129, (S)-5-(2-fluoro-6-hydroxy-3-(5-propyl-2,5-dihydro-1H-pyrrol-3-yl)phenyl)-1,2,5-thiadiazolidin-3-one 1,1-dioxide]
> 1 | > 1 | O=C1CN(c2c(O)ccc(C(=O)NC3CCNC3)c2F)S(=O)(=O)N1 (centres unmarked) [Compound 136, 3-(1,1-dioxido-4-oxo-1,2,5-thiadiazolidin-2-yl)-2-fluoro-4-hydroxy-N-(pyrrolidin-3-yl)benzamide]
≤ 1 | ≤ 1 | O=C1CN(c2c(O)ccc(C3=CC4CCCN4C3)c2F)S(=O)(=O)N1 (centres unmarked) [Compound 139, 5-(2-fluoro-6-hydroxy-3-(2,3,5,7a-tetrahydro-1H-pyrrolizin-6-yl)phenyl)-1,2,5-thiadiazolidin-3-one 1,1-dioxide]
≤ 1 | ≤ 1 | O=C1CN(c2c(O)ccc(CC3CCNC3)c2F)S(=O)(=O)N1 (centres unmarked) [Compound 141, 5-(2-fluoro-6-hydroxy-3-(pyrrolidin-3-ylmethyl)phenyl)-1,2,5-thiadiazolidin-3-one 1,1-dioxide]
> 1 | ≤ 1 | O=C1CN(c2c(O)ccc(OC3CCNC3)c2F)S(=O)(=O)N1 (centres unmarked) [Compound 142, 5-(2-fluoro-6-hydroxy-3-(pyrrolidin-3-yloxy)phenyl)-1,2,5-thiadiazolidin-3-one 1,1-dioxide]
